Experimental data: patent US11426454B2 (priority 2018, dated 2022)

Tested on: live BCG bacteria
Format: in vivo, C57BL/6 mice
Conditions: 0.1 mL (approximately 10^6 CFU/mL) under the armpits; isoniazid by gavage; 2×10^6 live BCG challenge one week later; week 4

## NNC(=O)c1ccncc1 [Isoniazid, isoniazid]
  Colony count of lung tissues (CFU): 34000 ± 13115 CFU
  Colony count of spleen tissues (CFU): 6733 ± 2969 CFU
